# Species: Rattus norvegicus
# Experiment: DrugMatrix - Regimen: Daily Repeat
# Assay type: toxicity, organism-based, Sprague-Dawley
# Parameters: regimen Daily Repeat, gender Male, age 6-8 weeks
# Conditions: in vivo, po, route oral GAVAGE, […]; for ABSOLUTE BASOPHIL / ABSOLUTE EOSINOPHIL / ABSOLUTE LYMPHOCYTE / ABSOLUTE MONOCYTE / ABSOLUTE SEGMENTED NEUTROPHIL / BASOPHIL / EOSINOPHIL / ERYTHROCYTE COUNT / HEMATOCRIT / HEMOGLOBIN / LEUKOCYTE COUNT / LYMPHOCYTE / MEAN CORPUSCULAR HEMOGLOBIN / MEAN CORPUSCULAR HEMOGLOBIN CONCENTRATION / MEAN CORPUSCULAR VOLUME / MONOCYTE / NEUTROPHIL / NUCLEATED RED BLOOD CELLS / PLATELET COUNT: tissue Blood; for ALANINE AMINOTRANSFERASE / ALBUMIN / ALKALINE PHOSPHATASE / ASPARTATE AMINOTRANSFERASE / BLOOD UREA NITROGEN / CARBON DIOXIDE / CHLORIDE / CHOLESTEROL / CREATINE PHOSPHOKINASE / CREATININE / GLUCOSE / LACTATE DEHYDROGENASE / LIPASE / PHOSPHORUS / POTASSIUM / SODIUM / TOTAL BILIRUBIN / TOTAL PROTEIN / URIC ACID: tissue Plasma
# [1] = 0 mg/kg, 72 h, dose level Control, time 3 day
# [2] = 0 mg/kg, 120 h, dose level Control, time 5 day
# [3] = 3 mg/kg, 72 h, dose level Low, time 3 day
structure (smiles),measurement,setting,value
Cc1cccc(Nc2ccncc2S(=O)(=O)NC(=O)NC(C)C)c1 [TORSEMIDE],ABSOLUTE BASOPHIL,[1],0 CELLS/uL
same,ABSOLUTE EOSINOPHIL,[1],41.83 CELLS/uL
same,ABSOLUTE LYMPHOCYTE,[1],8545.5 CELLS/uL
same,ABSOLUTE MONOCYTE,[1],240 CELLS/uL
same,ABSOLUTE SEGMENTED NEUTROPHIL,[1],906 CELLS/uL
same,BASOPHIL,[1],0%
same,EOSINOPHIL,[1],0.33%
same,ERYTHROCYTE COUNT,[1],5.6 x10E6/uL
same,HEMATOCRIT,[1],35.4%
same,HEMOGLOBIN,[1],13.42 G/DL
same,LEUKOCYTE COUNT,[1],9.73 x10E3/uL
same,LYMPHOCYTE,[1],87.83%
same,MEAN CORPUSCULAR HEMOGLOBIN,[1],23.98 pg
same,MEAN CORPUSCULAR HEMOGLOBIN CONCENTRATION,[1],37.92 G/DL
same,MEAN CORPUSCULAR VOLUME,[1],63.3 fL
same,MONOCYTE,[1],2.5%
same,NEUTROPHIL,[1],9.33%
same,NUCLEATED RED BLOOD CELLS,[1],0 /100WBC
same,PLATELET COUNT,[1],1032 x10E3/uL
same,ALANINE AMINOTRANSFERASE,[1],72.83 u/L
same,ALBUMIN,[1],4 G/DL
same,ALKALINE PHOSPHATASE,[1],322.83 u/L
same,ASPARTATE AMINOTRANSFERASE,[1],102.67 u/L
same,BLOOD UREA NITROGEN,[1],12 mg/dL
same,CARBON DIOXIDE,[1],34.33 mmol/L
same,CHLORIDE,[1],97.67 MEQ/L
same,CHOLESTEROL,[1],82.5 mg/dL
same,CREATINE PHOSPHOKINASE,[1],410.33 u/L
same,CREATININE,[1],0.18 mg/dL
same,GLUCOSE,[1],164.5 mg/dL
same,LACTATE DEHYDROGENASE,[1],119.5 u/L
same,LIPASE,[1],11.83 u/L
same,PHOSPHORUS,[1],9.52 mg/dL
same,POTASSIUM,[1],5.56 MEQ/L
same,SODIUM,[1],142.48 MEQ/L
same,TOTAL BILIRUBIN,[1],0.18 mg/dL
same,TOTAL PROTEIN,[1],5.77 G/DL
same,URIC ACID,[1],0.48 mg/dL
same,ABSOLUTE BASOPHIL,[2],0 CELLS/uL
same,ABSOLUTE EOSINOPHIL,[2],0 CELLS/uL
same,ABSOLUTE LYMPHOCYTE,[2],9065 CELLS/uL
same,ABSOLUTE MONOCYTE,[2],341.33 CELLS/uL
same,ABSOLUTE SEGMENTED NEUTROPHIL,[2],527 CELLS/uL
same,BASOPHIL,[2],0%
same,EOSINOPHIL,[2],0%
same,ERYTHROCYTE COUNT,[2],5.25 x10E6/uL
same,HEMATOCRIT,[2],34.08%
same,HEMOGLOBIN,[2],13.5 G/DL
same,LEUKOCYTE COUNT,[2],9.93 x10E3/uL
same,LYMPHOCYTE,[2],91.17%
same,MEAN CORPUSCULAR HEMOGLOBIN,[2],25.7 pg
same,MEAN CORPUSCULAR HEMOGLOBIN CONCENTRATION,[2],39.62 G/DL
same,MEAN CORPUSCULAR VOLUME,[2],64.93 fL
same,MONOCYTE,[2],3.33%
same,NEUTROPHIL,[2],5.5%
same,NUCLEATED RED BLOOD CELLS,[2],0 /100WBC
same,PLATELET COUNT,[2],1077.5 x10E3/uL
same,ALANINE AMINOTRANSFERASE,[2],57.83 u/L
same,ALBUMIN,[2],4.07 G/DL
same,ALKALINE PHOSPHATASE,[2],319.17 u/L
same,ASPARTATE AMINOTRANSFERASE,[2],83.33 u/L
same,BLOOD UREA NITROGEN,[2],13.67 mg/dL
same,CARBON DIOXIDE,[2],30.83 mmol/L
same,CHLORIDE,[2],98.33 MEQ/L
same,CHOLESTEROL,[2],64.83 mg/dL
same,CREATINE PHOSPHOKINASE,[2],263.67 u/L
same,CREATININE,[2],0.2 mg/dL
same,GLUCOSE,[2],182.83 mg/dL
same,LACTATE DEHYDROGENASE,[2],124 u/L
same,LIPASE,[2],10.5 u/L
same,PHOSPHORUS,[2],10 mg/dL
same,POTASSIUM,[2],5.78 MEQ/L
same,SODIUM,[2],142.48 MEQ/L
same,TOTAL BILIRUBIN,[2],0.2 mg/dL
same,TOTAL PROTEIN,[2],6 G/DL
same,URIC ACID,[2],0.7 mg/dL
same,ABSOLUTE BASOPHIL,[3],0 CELLS/uL
same,ABSOLUTE EOSINOPHIL,[3],53.33 CELLS/uL
same,ABSOLUTE LYMPHOCYTE,[3],14854 CELLS/uL
same,ABSOLUTE MONOCYTE,[3],155 CELLS/uL
same,ABSOLUTE SEGMENTED NEUTROPHIL,[3],1071 CELLS/uL
same,BASOPHIL,[3],0%
same,EOSINOPHIL,[3],0.33%
same,ERYTHROCYTE COUNT,[3],5.34 x10E6/uL
same,HEMATOCRIT,[3],33.73%
same,HEMOGLOBIN,[3],13.07 G/DL
same,LEUKOCYTE COUNT,[3],16.13 x10E3/uL
same,LYMPHOCYTE,[3],92%
same,MEAN CORPUSCULAR HEMOGLOBIN,[3],24.43 pg
same,MEAN CORPUSCULAR HEMOGLOBIN CONCENTRATION,[3],38.7 G/DL
same,MEAN CORPUSCULAR VOLUME,[3],63.07 fL
same,MONOCYTE,[3],1%
same,NEUTROPHIL,[3],6.67%
same,NUCLEATED RED BLOOD CELLS,[3],0 /100WBC
same,PLATELET COUNT,[3],969.67 x10E3/uL
same,ALANINE AMINOTRANSFERASE,[3],67.33 u/L
same,ALBUMIN,[3],3.93 G/DL
same,ALKALINE PHOSPHATASE,[3],375.67 u/L
same,ASPARTATE AMINOTRANSFERASE,[3],84.33 u/L
same,BLOOD UREA NITROGEN,[3],11.33 mg/dL
same,CARBON DIOXIDE,[3],26.67 mmol/L
same,CHLORIDE,[3],101.33 MEQ/L
same,CHOLESTEROL,[3],69.33 mg/dL
same,CREATINE PHOSPHOKINASE,[3],255 u/L
same,CREATININE,[3],0.29 mg/dL
same,GLUCOSE,[3],162 mg/dL
same,LACTATE DEHYDROGENASE,[3],201 u/L
same,LIPASE,[3],11.67 u/L
same,PHOSPHORUS,[3],10.23 mg/dL
same,POTASSIUM,[3],5.87 MEQ/L
same,SODIUM,[3],143.83 MEQ/L
same,TOTAL BILIRUBIN,[3],0.2 mg/dL
same,TOTAL PROTEIN,[3],5.6 G/DL
same,URIC ACID,[3],0.93 mg/dL

# From ChEMBL document CHEMBL3885881, “DrugMatrix”
